Reference: BindingDB's records for patent US20250214932 (Praxis Precision Medicines, 2025)

target: Voltage-dependent T-type calcium channel subunit alpha-1G (Homo sapiens, UniProt O43497); experiment: In Vitro Cav3.1 Single Point and IC50 (VDB) Data
Procedure: The compound plate was created at 2× concentrated in the extracellular solution. The compound was diluted to 1:2 when added to the recording well. The amount of DMSO in the extracellular solution was held constant at the level used for the highest tested concentration. For the voltage clamp experiments on Cav3.1, data were sampled at 10 KHz. After establishment of the seal and the passage in the whole cell configuration, the cells were held at −120 mV. Cav3.1 current was evoked using a 100 ms step to −20 mV (to measure resting state block), followed by a 1600 ms step to −65 mV and a second 100 ms step to −20 mV (to measure voltage dependent block). The voltage protocol was applied every 15 seconds in the absence and in the presence of the compounds under investigation. […] Current amplitude (pA) was measured in the peak 1 and 2. The average of last 3 sweeps of each liquid period (vehicle, compound under investigation, full block) was calculated. Nickel-sensitive current was used to calculate the % of inhibition in the presence of the compound under investigation.

Sequence of Voltage-dependent T-type calcium channel subunit alpha-1G (O43497 whole entry): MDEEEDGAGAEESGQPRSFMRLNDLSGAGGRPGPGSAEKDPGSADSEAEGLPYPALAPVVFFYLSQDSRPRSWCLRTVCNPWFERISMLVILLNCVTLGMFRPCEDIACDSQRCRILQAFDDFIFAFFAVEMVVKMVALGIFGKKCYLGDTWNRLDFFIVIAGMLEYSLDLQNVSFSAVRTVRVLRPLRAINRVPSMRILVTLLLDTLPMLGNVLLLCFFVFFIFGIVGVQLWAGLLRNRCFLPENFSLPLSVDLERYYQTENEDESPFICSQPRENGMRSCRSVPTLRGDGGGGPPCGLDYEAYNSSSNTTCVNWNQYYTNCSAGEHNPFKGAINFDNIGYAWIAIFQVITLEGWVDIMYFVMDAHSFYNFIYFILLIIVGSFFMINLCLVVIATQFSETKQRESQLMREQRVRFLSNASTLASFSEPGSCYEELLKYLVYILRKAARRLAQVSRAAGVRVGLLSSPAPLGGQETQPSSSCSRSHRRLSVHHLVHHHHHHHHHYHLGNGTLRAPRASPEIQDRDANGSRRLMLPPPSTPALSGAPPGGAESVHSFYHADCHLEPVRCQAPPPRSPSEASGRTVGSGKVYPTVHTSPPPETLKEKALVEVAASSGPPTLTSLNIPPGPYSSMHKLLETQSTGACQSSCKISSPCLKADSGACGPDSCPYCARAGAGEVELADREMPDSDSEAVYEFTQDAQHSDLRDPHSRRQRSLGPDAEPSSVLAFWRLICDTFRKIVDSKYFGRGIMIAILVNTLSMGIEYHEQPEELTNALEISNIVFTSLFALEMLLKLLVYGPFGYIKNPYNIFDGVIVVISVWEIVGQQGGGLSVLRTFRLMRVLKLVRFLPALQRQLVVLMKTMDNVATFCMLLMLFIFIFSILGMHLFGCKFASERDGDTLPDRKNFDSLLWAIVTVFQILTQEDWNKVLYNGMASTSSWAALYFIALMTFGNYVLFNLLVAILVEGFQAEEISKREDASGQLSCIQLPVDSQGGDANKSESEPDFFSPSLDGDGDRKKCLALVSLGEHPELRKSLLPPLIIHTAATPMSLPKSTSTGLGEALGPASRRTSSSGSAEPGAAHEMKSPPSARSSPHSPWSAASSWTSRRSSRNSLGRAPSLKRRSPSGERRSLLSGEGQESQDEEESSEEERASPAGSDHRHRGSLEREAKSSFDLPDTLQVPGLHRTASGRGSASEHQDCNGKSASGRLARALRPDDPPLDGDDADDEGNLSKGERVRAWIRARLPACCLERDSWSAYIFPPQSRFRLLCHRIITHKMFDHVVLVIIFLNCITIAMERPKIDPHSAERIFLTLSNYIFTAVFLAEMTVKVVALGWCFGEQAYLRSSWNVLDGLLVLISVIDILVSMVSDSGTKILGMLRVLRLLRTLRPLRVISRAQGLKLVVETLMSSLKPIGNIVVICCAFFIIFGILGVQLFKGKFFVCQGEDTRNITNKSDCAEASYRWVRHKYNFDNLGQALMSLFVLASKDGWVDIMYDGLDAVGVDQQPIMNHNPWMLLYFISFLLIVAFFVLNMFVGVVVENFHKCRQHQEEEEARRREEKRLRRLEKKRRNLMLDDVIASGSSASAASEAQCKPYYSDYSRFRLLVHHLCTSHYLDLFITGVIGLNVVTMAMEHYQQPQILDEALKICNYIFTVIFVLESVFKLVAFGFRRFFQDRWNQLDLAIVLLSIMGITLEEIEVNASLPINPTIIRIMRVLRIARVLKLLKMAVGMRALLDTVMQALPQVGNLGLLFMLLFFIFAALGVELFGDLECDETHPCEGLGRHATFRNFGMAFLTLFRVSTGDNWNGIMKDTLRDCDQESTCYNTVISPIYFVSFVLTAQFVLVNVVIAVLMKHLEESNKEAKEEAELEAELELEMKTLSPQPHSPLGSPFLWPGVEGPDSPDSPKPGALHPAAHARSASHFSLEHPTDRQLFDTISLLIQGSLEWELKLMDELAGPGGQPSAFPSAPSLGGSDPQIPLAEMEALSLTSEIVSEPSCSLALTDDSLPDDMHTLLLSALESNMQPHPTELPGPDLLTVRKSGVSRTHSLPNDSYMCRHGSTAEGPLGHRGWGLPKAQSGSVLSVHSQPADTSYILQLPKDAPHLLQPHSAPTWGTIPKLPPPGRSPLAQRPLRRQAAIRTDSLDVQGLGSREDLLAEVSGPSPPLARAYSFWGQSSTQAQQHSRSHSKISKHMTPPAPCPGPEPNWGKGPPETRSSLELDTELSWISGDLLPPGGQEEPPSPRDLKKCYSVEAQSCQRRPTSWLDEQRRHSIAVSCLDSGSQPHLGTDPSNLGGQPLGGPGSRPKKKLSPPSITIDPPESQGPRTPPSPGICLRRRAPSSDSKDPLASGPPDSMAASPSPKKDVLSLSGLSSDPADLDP

`COc1cc(F)cc(NC(=O)C2CCC3(CC2)CN(CC(=O)NC(C)(C)C)C3)c1` [US20250214932, Example 46] and `Cc1cc(F)cc(NC(=O)C2CCC3(CC2)CN(CC(=O)NC(C)(C)C)C3)c1` [US20250214932, Example 48] are within 1.5-fold of each other in IC50: 218 nM for the first, 196 nM for the second.

First: O=C(Nc1cc(F)cc(C(F)F)c1)C1CCC2(CC1)CN(CCNC(=O)C1(C(F)(F)F)CCC1)C2 [US20250214932, Example 52]
Second: O=C(CN1CC2(CCC(C(=O)Nc3cc(F)cc(C(F)F)c3)CC2)C1)NC1(C(F)(F)F)CCC1 [US20250214932, Example 85]
The IC50 of the first is 1.6-fold higher: 261 nM for the first, 163 nM for the second.

Going from `O=C(Nc1cc(F)cc(Cl)c1)C1CCC2(CC1)CN(CC(O)C1CCCCC1)C2` (centres undefined) [US20250214932, Example 68] to `O=C(Nc1cc(F)cc(C(F)F)c1)C1CCC2(CC1)CN(CC(F)(F)C1CCCC1)C2` [US20250214932, Example 100], the IC50 rises from 170 nM to 407 nM (2.4-fold). The first is the more potent here.

First: O=C(CN1CC2(CCC(C(=O)Nc3cc(F)cc(C(F)F)c3)CC2)C1)NC1(C(F)(F)F)CC1 [US20250214932, Example 79]
Second: COc1cc(Cl)cc(NC(=O)C2CCC3(CC2)CN(CC2(C#N)CC2)C3)c1 [US20250214932, Example 129]
The IC50 of the first is lower: under 78.2 nM for the first, 1360 nM for the second.

`O=C(NC12CC3CC(CC(C3)C1)C2)C1CCC2(CC1)CN(CC1(O)CCC(F)(F)CC1)C2` [US20250214932, Example 153] showed an IC50 of 188 nM.
